Measured values reported in DBAASP.
Values after ≈ are worked out from the molar mass of the structure shown. Each block holds one compound with its values, some of them ahead of it.

Columns and labels:
Test in all cases: ≥ marks a high value that may be exact or a test limit, other limits are often not marked, values filed in µg/mL are converted to µM
[1] = system: Staphylococcus aureus SH1000
[2] = system: Pseudomonas aeruginosa ATCC 27853
[3] = system: Staphylococcus aureus ATCC 43300
[4] = system: Klebsiella pneumoniae ATCC 700603
[5] = system: Acinetobacter baumannii ATCC 19606
[6] = system: Escherichia coli ATCC 25922
[7] = system: Cryptococcus neoformans ATCC 208821
[8] = system: Candida albicans ATCC 90028
[9] = system: Staphylococcus epidermidis NBRC 12993
[10] = system: Candida viswanathii NBRC 10321
[11] = system: Aspergillus oryzae NBRC 100959
[12] = system: Escherichia coli NBRC 3972
[13] = system: Micrococcus luteus NBRC 3333
Escherichia coli D31 = system: Escherichia coli D31
[14] = system: Pseudomonas aeruginosa ATCC 10145
[15] = system: Staphylococcus aureus ATCC 27660
[16] = system: Franconibacter helveticus DSM 18390
[17] = system: Bacillus subtilis DSM 347
[18] = system: Staphylococcus xylosus DSM 20267
[19] = system: Escherichia coli DSM 1116
[20] = system: Escherichia coli ESBL 521/17
[21] = system: Klebsiella pneumoniae ESBL 344/17
[22] = system: Pseudomonas aeruginosa 522/17
Escherichia coli ML-35p = system: Escherichia coli ML-35p
[23] = system: Staphylococcus aureus SG511
[24] = system: Acinetobacter baumannii 7226/16
[25] = system: Staphylococcus aureus 1399/17
[26] = system: Staphylococcus aureus ATCC 33591
[27] = system: Staphylococcus aureus M838-17
[28] = system: Pseudomonas aeruginosa E411-17
[29] = system: Klebsiella pneumoniae E406-17
Escherichia coli W3110 = system: Escherichia coli W3110
[30] = system: Klebsiella pneumoniae ATCC BAA-1705
[31] = system: Pseudomonas aeruginosa PAO1
[32] = system: Pseudomonas aeruginosa 919
[33] = system: Pseudomonas aeruginosa 253
[34] = system: Pseudomonas aeruginosa 910

SMILES: CC[C@H](C)[C@H](NC(=O)[C@H](CC(=O)O)NC(=O)[C@H](Cc1ccccc1)NC(=O)[C@H](CC(C)C)NC(=O)CN)C(=O)N[C@H](C(=O)N[C@@H](CCCCN)C(=O)N[C@@H](CCCCN)C(=O)N[C@H](C(=O)N[C@H](C(=O)NCC(=O)N[C@@H](C)C(=O)N[C@@H](CC(C)C)C(=O)NCC(N)=O)C(C)C)C(C)C)C(C)C [GLFDIVKKVVGALG]
- MIC [1]: ≥ 50 µM
- MIC [2]: > 23 µM
- MIC [3]: > 23 µM
- MIC [4]: > 23 µM
- MIC [5]: > 23 µM
- MIC [6]: > 23 µM
- MIC [7]: 23 µM (≈ 32.5 µg/mL)
- MIC [8]: 23 µM (≈ 32.5 µg/mL)

SMILES: C[C@H](N)C(=O)N[C@@H](C)C(=O)N[C@@H](Cc1c[nH]c2ccccc12)C(=O)N[C@@H](CCCCN)C(=O)N[C@@H](CCCCN)C(=O)N[C@@H](C)C(=O)N[C@@H](C)C(=O)N[C@@H](CCCCN)C(=O)N[C@@H](CCCCN)C(=O)N[C@@H](C)C(=O)N[C@@H](C)C(=O)N[C@@H](CCCCN)C(=O)N[C@@H](CO)C(=O)N[C@@H](C)C(=O)N[C@@H](CCCCN)C(=O)N[C@@H](CCCCN)C(=O)N[C@@H](C)C(=O)NCC(N)=O [AAWKKAAKKAAKSAKKAG]
- MIC (Escherichia coli D31): 15 µM (≈ 27.2 µg/mL)
- MIC [14]: 15 µM (≈ 27.2 µg/mL)
- MIC [5]: > 15 µM
- MIC [15]: 15 µM (≈ 27.2 µg/mL)

SMILES: CC(C)C[C@H](NC(=O)[C@H](CCCCN)NC(=O)[C@H](CC(C)C)NC(=O)[C@H](CCCCN)NC(=O)[C@H](CC(C)C)NC(=O)[C@H](CCCCN)NC(=O)[C@H](CC(C)C)NC(=O)[C@H](CCCCN)NC(=O)[C@H](CC(C)C)NC(=O)[C@H](CCCCN)NC(=O)[C@H](CC(C)C)NC(=O)[C@H](CCCCN)NC(=O)[C@H](CC(C)C)NC(=O)[C@@H](N)CCCCN)C(N)=O [KLKLKLKLKLKLKL]
- MIC [16]: 2.34 µM (≈ 4 µg/mL)
- MIC [17]: 2.34 µM (≈ 4 µg/mL)
- MIC [18]: 2.34 µM (≈ 4 µg/mL)
- MIC [19]: 4.69 µM (≈ 8 µg/mL)

SMILES: CC[C@H](C)[C@H](N)C(=O)N[C@@H](CC(C)C)C(=O)N[C@@H](Cc1c[nH]c2ccccc12)C(=O)N[C@@H](C)C(=O)N[C@@H](CCCCN)C(=O)N[C@@H](Cc1c[nH]c2ccccc12)C(=O)NCC(=O)N[C@@H](CC(C)C)C(=O)N[C@@H](CCCCN)C(=O)N[C@@H](CC(C)C)C(=O)N[C@@H](CC(C)C)C(=O)N[C@@H](CCCN=C(N)N)C(=O)N[C@@H](Cc1ccc(O)cc1)C(=O)N[C@@H](CCCN=C(N)N)C(=O)N[C@@H](CCCN=C(N)N)C(=O)N[C@H](C(=O)N[C@@H](Cc1ccc(O)cc1)C(=O)O)[C@@H](C)CC [ILWAKWGLKLLRYRRIY]
- MIC (Escherichia coli W3110): 4 µM (≈ 9 µg/mL)
- MIC [30]: ≥ 64 µM

SMILES: CC[C@H](C)[C@H](NC(=O)[C@@H](N)Cc1ccccc1)C(=O)N[C@@H](CCCCN)C(=O)N[C@@H](CCCN=C(N)N)C(=O)N[C@@H](CCCCN)C(=O)N[C@@H](CO)C(=O)N[C@@H](CCCN=C(N)N)C(=O)N[C@@H](Cc1c[nH]c2ccccc12)C(=O)N[C@@H](Cc1c[nH]c2ccccc12)C(=O)N[C@@H](CCCCN)C(=O)N[C@@H](Cc1c[nH]c2ccccc12)C(=O)N[C@@H](CCCN=C(N)N)C(=O)N[C@H](C(N)=O)[C@@H](C)O [FIKRKSRWWKWRT]
- MIC [31]: 4 µM (≈ 7.51 µg/mL)
- MIC [32]: ≥ 32 µM
- MIC [33]: 11.3 µM (≈ 21.2 µg/mL)
- MIC [34]: 8 µM (≈ 15 µg/mL)

Results, then the compound that gave them:

- MIC [9]: 14.5 µM (≈ 25 µg/mL)
- MIC [10]: 14.5 µM (≈ 25 µg/mL)
- MIC [11]: 7.27 µM (≈ 12.5 µg/mL)
- MIC [12]: ≥ 116 µM
- MIC [13]: 14.5 µM (≈ 25 µg/mL)
SMILES: CC[C@H](C)[C@H](NC(=O)[C@H](CCSC)NC(=O)[C@H](CCCN=C(N)N)NC(=O)[C@H](CCCN=C(N)N)NC(=O)[C@H](CC(C)C)NC(=O)[C@H](Cc1ccc(O)cc1)NC(=O)[C@H](CCCN=C(N)N)NC(=O)[C@H](CCCCN)NC(=O)[C@@H](NC(=O)[C@H](CCCCN)NC(=O)[C@@H](N)CCCN=C(N)N)[C@@H](C)CC)C(=O)N[C@@H](Cc1c[nH]c2ccccc12)C(=O)O [RKIKRYLRRMIW]

- MIC [20]: 4 µM (≈ 15 µg/mL)
- MIC [21]: 8 µM (≈ 30 µg/mL)
- MIC [22]: 16 µM (≈ 60 µg/mL)
- MIC (Escherichia coli ML-35p): 4 µM (≈ 15 µg/mL)
- MIC [23]: 0.5 µM (≈ 1.87 µg/mL)
- MIC [24]: 11.3 µM (≈ 42.4 µg/mL)
- MIC [25]: 8 µM (≈ 30 µg/mL)
- MIC [26]: 8 µM (≈ 30 µg/mL)
SMILES: CC[C@H](C)[C@H](NC(=O)[C@H](CCCN=C(N)N)NC(=O)[C@@H](NC(=O)[C@@H]1CCCN1C(=O)[C@H](Cc1c[nH]c2ccccc12)NC(=O)[C@@H]1CCCN1C(=O)[C@H](CCCN=C(N)N)NC(=O)[C@H](CCCN=C(N)N)NC(=O)[C@H](Cc1ccccc1)NC(=O)[C@@H]1CCCN1C(=O)[C@H](CC(C)C)NC(=O)[C@H](CCCN=C(N)N)NC(=O)[C@H](Cc1ccccc1)NC(=O)[C@@H](N)CCCN=C(N)N)[C@@H](C)CC)C(=O)N[C@@H](Cc1cnc[nH]1)C(=O)N1CCC[C@H]1C(=O)N1CCC[C@H]1C(=O)N1CCC[C@H]1C(=O)N[C@@H](Cc1ccccc1)C(=O)N[C@@H](Cc1ccc(O)cc1)C(=O)N1CCC[C@H]1C(=O)N[C@@H](Cc1c[nH]c2ccccc12)C(=O)N1CCC[C@H]1C(=O)N[C@@H](Cc1ccccc1)C(=O)N[C@@H](CCCN=C(N)N)C(=O)N[C@@H](CCCN=C(N)N)C(=O)N[C@@H](Cc1ccccc1)C(=O)N[C@@H](CC(C)C)C(=O)O [RFRLPFRRPWPIRIHPPPFYPWPFRRFL]

- MIC [27]: 6.25 µM (≈ 8.21 µg/mL)
- MIC [28]: 12.5 µM (≈ 16.4 µg/mL)
- MIC [29]: ≥ 50 µM
SMILES: CC(C)C[C@H](NC(=O)[C@H](Cc1c[nH]c2ccccc12)NC(=O)[C@H](Cc1c[nH]c2ccccc12)NC(=O)[C@H](Cc1c[nH]c2ccccc12)NC(=O)[C@H](CCCN=C(N)N)NC(=O)[C@H](CCCN=C(N)N)NC(=O)[C@H](CCCN=C(N)N)NC(=O)[C@@H](N)CCCN=C(N)N)C(N)=O [RRRRWWWL]
